{"source": "patent US20260130879A1", "about": "(IMMUNIC AG, priority 2023, published 2026)", "key": {"brain lesions": {"test_system": "brain lesions", "conditions": "animal model of RRMS; cited from earlier work"}, "RRMS patients": {"test_system": "RRMS patients", "conditions": "12 weeks or 24 weeks; cited from earlier work"}, "[1]": {"test_system": "tyrosine hydroxylase (TH)", "test": "Nurr1 regulated gene expression of TH in T98G cells (qPCR)", "format": "cell-based", "conditions": "16 h", "protocol": "(§1) . After 16 h of incubation the medium was removed, cells were washed with phosphate buffered saline (PBS) and after full aspiration of residual liquids immediately frozen at −80° C., until further procession. Total RNA was isolated using E.Z.N.A.® Total RNA Kit I (Omega Bio-tek. Norcross. USA) following the manufacturer's instructions. RNA concentration and purity was assessed using a NanoDrop™ One UV/VIS spectrophotometer (Thermo Fisher Scientific. Waltham. USA) at 260/280 nm. Right before reverse transcription (RT), RNA was linearized at a concentration of 133 ng/μL at 65° C., for 10 min and then immediately incubated on ice for at least 1 min. Reverse transcription was performed using 2 μg total RNA, 20 U Recombinant RNasin® Ribonuclease Inhibitor (Promega, Mannheim, Germany), 100 U SuperScript IV Reverse Transcriptase including 5× First Strand Buffer and 0.1 M dithiothreitol (Thermo Fisher Scientific, Waltham, USA), 3.75 ng linear acrylamide. […] Quantitative polymerase chain reaction (qPCR) was conducted using an Applied Biosystems™ QuantStudio 1 (Waltham, USA) and a SYBR green based detection method. […] PCR product specificity was evaluated using a melting curve analysis ranging from 65 to 95° C. […]"}, "[2]": {"test_system": "vesicular amino acid transporter 2 (VMAT2)", "test": "Nurr1 regulated gene expression of VMAT2 in T98G cells (qPCR)", "format": "cell-based", "conditions": "16 h", "protocol": "as §1"}, "BDNF": {"test_system": "BDNF", "test": "Induction of BDNF in LPS-stimulated human PBMCs (ELISA)", "format": "cell-based", "conditions": "3 μM, supernatant 14 h"}, "Nurr1 target genes": {"test_system": "Nurr1 target genes", "test": "Microarray gene expression in stimulated human PBMCs", "format": "cell-based", "conditions": "anti-CD3/anti-CD28 stimulated human PBMCs, 20 h", "protocol": "Human PBMC isolation was performed similarly as described above. […] Four biological replicates were used per condition. Cells were detached from the cell culture plates by using MACS buffer, were washed with PBS and then resuspended in RLT buffer for subsequent RNA isolation with RNAeasy Mini Kit (Quiagen). 100 ng total RNA per sample were introduced into an RT-IVT reaction. Prior to RT-IVT, the total RNA samples were spiked with in-vitro synthesized polyadenylated transcripts (One-Color RNA Spike-In Mix, Agilent Technologies), which serves as an internal labeling control for linearity, sensitivity and accuracy. The spiked total RNA was reverse transcribed into cDNA and then converted into labeled cRNA by in vitro transcription (Low Input Quick-Amp Labeling Kit One-Color, Agilent Technologies) incorporating Cyanine-3-CTP. All steps were carried out according to the manufacturer's instructions. […] Afterwards, microarrays were washed with increasing stringency using Gene Expression Wash Buffers (Agilent Technologies) followed by drying with acetonitrile (SIGMA). […] Differential gene expression was identified by applying appropriate biostatistics to the data set. GeneSpring GX11 analysis software was used to normalize and analyze the raw data. […] The induced and repressed genes were further characterized for involvement in functional categories (biological processes, molecular functions, cellular components, protein classes and pathways) based on the PANTHER database."}, "[3]": {"test_system": "neurofilament light polypeptide (NFL)", "test": "Serum neurofilament (NFL) in Phase 2 study in relapsing-remitting multiple sclerosis, patients with no relapses", "format": "in vivo, human", "conditions": "after 24 weeks, RRMS patients with no relapses", "protocol": "[…]. The study was carried out in accordance with current ICH E6 (Good Clinical Practice) guidelines and the EMA Reflection paper for laboratories that perform the analysis or evaluation of clinical trial samples (EMA/INS/GCP/532137/2010, 28 Feb. 2012). The sample analysis was performed on a Meso QuickPlex SQ 120 analyzer by an ECLIA technique using a validated method.\nIn order to confirm an effect of IMU-838 on the plasma levels of NFL the subgroup of patients with no relapses was investigated"}, "SH-SY5Y": {"test_system": "SH-SY5Y", "test": "Apoptosis assay in SH-SY5Y cells (TNFα and CHX)", "format": "cell-based, human", "conditions": "pretreated 1 h, TNFα 50 ng/ml and CHX 20 μg/mL for 6 hours", "protocol": "(§2) Cell viability was assessed by flow cytometry after staining the cells with Annexin V and a live/dead dye. Alive cells are defined as […]."}, "N2A": {"test_system": "N2A", "test": "Apoptosis assay in N2A cells (TNFα and CHX)", "format": "cell-based, murine", "conditions": "pretreated 1 h, TNFα 50 ng/ml and CHX 20 μg/mL for 6 hours", "protocol": "as §2"}, "NFL": {"test_system": "NFL", "conditions": "EXPAND, 12-month; cited from earlier work"}}, "note": "Entries after “also recorded” stand apart in the source; their conditions may differ. Where a name gives a salt, the structure may show the parent alone.", "data": [{"smiles": "COc1cccc(-c2ccc(NC(=O)C3=C(C(=O)O)CCC3)c(F)c2)c1", "note": "[vidofludimus calcium, vidofludimus calcium salt dihydrate]", "values": [{"measurement": "reduction in brain lesions vs control treatment", "setting": "brain lesions", "value": "greater reduction in brain lesions"}, {"measurement": "rate of confirmed disability worsening over time vs placebo", "setting": "RRMS patients", "value": "lower rate of confirmed disability worsening"}, {"measurement": "unique active brain lesions vs placebo", "setting": "RRMS patients", "value": "significantly fewer unique active brain lesions"}]}, {"smiles": "COc1cccc(-c2ccc(NC(=O)C3=C(C(=O)O)CCC3)c(F)c2)c1", "note": "[Example 1, vidofludimus]", "values": [{"measurement": "gene expression on tyrosine hydroxylase (TH)", "setting": "[1]", "value": "dose-dependent gene expression"}, {"measurement": "gene expression on vesicular amino acid transporter 2 (VMAT2)", "setting": "[2]", "value": "dose-dependent gene expression"}]}, {"smiles": "COc1cccc(-c2ccc(NC(=O)C3=C(C(=O)O)CCC3)c(F)c2)c1", "note": "[IMU-838, vidofludimus calcium]", "values": [{"measurement": "BDNF production", "setting": "BDNF", "value": "BDNF is produced"}, {"measurement": "Upregulation A2M", "setting": "Nurr1 target genes", "value": 1.6}, {"measurement": "Upregulation BHLHE41", "setting": "Nurr1 target genes", "value": 1.5}, {"measurement": "Upregulation CFB", "setting": "Nurr1 target genes", "value": 2.4}, {"measurement": "Upregulation HSD11B1", "setting": "Nurr1 target genes", "value": 2.5}, {"measurement": "Upregulation LTA", "setting": "Nurr1 target genes", "value": 2.0}, {"measurement": "Upregulation MARCO", "setting": "Nurr1 target genes", "value": 2.6}, {"measurement": "Upregulation NCAM", "setting": "Nurr1 target genes", "value": 1.6}, {"measurement": "mean change of NFL (reduction)", "setting": "[3]", "value": 18, "unit": "%"}]}, {"smiles": "C#CCOc1cccc(-c2ccc(NC(=O)C3=C(C(=O)O)CCC3)c(F)c2)c1", "note": "[Example 3, 2-((3-Fluoro-3′-(prop-2-yn-1-yloxy)-[1,1′-biphenyl]-4-yl)carbamoyl)cyclopent-1-ene-1-carboxylic acid]", "values": [{"measurement": "gene expression on tyrosine hydroxylase (TH)", "setting": "[1]", "value": "dose-dependent gene expression"}, {"measurement": "gene expression on vesicular amino acid transporter 2 (VMAT2)", "setting": "[2]", "value": "dose-dependent activation; also recorded: dose-dependent gene expression"}, {"measurement": "induction of apoptosis, SH-SY5Y", "setting": "SH-SY5Y", "value": "induction of apoptosis was reduced"}, {"measurement": "induction of apoptosis, N2A", "setting": "N2A", "value": "induction of apoptosis was reduced"}]}, {"smiles": "CCc1cc(/C(C)=N/OCc2ccc(C3CCCCC3)c(C(F)(F)F)c2)ccc1CN1CC(C(=O)O)C1", "note": "[siponimod]", "values": [{"measurement": "effect on neurofilament, non-active SPMS", "setting": "NFL", "value": "little or no effect on neurofilament"}]}]}
